# Results published in ChEMBL document CHEMBL2040733, “Doing the methylene shuffle--further insights into the inhibition of mitotic kinesin Eg5 with S-trityl L-cysteine” (Eur J Med Chem, 2012).
# Key:
# [1] = molecular target: T1, Kinesin-like protein KIF11 (Homo sapiens, UniProt P52732)
# T1 sequence (P52732 whole entry): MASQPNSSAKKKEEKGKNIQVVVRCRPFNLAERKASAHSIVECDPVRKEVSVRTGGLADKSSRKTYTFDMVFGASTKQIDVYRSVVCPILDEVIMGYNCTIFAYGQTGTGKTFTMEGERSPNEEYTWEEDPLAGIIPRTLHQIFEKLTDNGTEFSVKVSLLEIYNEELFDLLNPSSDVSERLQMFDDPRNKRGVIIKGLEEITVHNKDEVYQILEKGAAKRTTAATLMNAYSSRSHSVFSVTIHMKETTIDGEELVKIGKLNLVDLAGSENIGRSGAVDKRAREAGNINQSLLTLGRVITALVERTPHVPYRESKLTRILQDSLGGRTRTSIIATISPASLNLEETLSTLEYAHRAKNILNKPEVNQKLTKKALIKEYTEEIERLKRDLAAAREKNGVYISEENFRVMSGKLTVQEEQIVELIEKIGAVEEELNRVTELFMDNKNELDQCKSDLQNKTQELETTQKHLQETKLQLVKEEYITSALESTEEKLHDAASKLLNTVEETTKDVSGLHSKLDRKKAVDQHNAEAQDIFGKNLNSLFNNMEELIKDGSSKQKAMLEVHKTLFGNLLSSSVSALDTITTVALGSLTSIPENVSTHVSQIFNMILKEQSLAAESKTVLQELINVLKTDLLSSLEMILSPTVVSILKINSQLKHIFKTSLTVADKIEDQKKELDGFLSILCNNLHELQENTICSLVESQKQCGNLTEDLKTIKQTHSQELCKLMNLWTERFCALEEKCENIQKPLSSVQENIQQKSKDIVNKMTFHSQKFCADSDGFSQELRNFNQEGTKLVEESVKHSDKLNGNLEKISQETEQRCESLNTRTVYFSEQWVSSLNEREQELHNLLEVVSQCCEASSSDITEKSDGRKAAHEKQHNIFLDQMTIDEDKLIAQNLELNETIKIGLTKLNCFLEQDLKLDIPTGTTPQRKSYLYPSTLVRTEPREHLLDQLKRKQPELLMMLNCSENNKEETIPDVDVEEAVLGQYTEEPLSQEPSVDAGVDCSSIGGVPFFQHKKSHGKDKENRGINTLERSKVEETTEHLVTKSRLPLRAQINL
# Description: Inhibition of basal ATPase activity of Eg5 by coupled pyruvate kinase/lactate dehydrogenase assay
# [2] = Solubility of the compound in phosphate buffered saline at pH 7.4 after 2 hrs by turbidimetric analysis; type: physicochemical
# [3] = Cytotoxicity against wild type human KB-3-1 cells; type: functional
# [4] = test system: BXPC-3; test: Cytotoxicity against human BxPC3 cells after 72 hrs by Alamar blue assay; type: functional; details: BXPC-3, 72 h
# [5] = test system: K562; test: Cytotoxicity against human K562 cells after 72 hrs by Alamar blue assay; type: functional; details: K562, 72 h
# [6] = Cytotoxicity against human KBV1 cells expressing p-glycoprotein; type: functional; details: KB-V1
# [7] = test system: HCT-116; test: Cytotoxicity against human HCT116 cells after 72 hrs by Alamar blue assay; type: functional; details: HCT-116, 72 h
# [8] = test system: NCI-H1299; test: Cytotoxicity against human NCI-H1299 cells after 72 hrs by Alamar blue assay; type: functional; details: NCI-H1299, 72 h
# [9] = test system: KB-V1; test: Multidrug resistant ratio of GI50 for human KBV1 cells expressing p-glycoprotein to GI50 for wild type human KB-3-1 cells; type: functional
Structure (SMILES),IC50 [1],GI50 [5],further results
NCCSC(Cc1ccccc1)(c1ccccc1)c1ccc(Cl)cc1 (racemic),141 nM,3720 nM,GI50 [3]: 5550 nM; GI50 [4]: 4260 nM; GI50 [6]: 5780 nM; GI50 [7]: 2050 nM; GI50 [8]: 6790 nM; RatioGI50 [9]: 1
N[C@@H](CSC(Cc1ccccc1)(c1ccccc1)c1ccc(F)cc1)C(=O)O (mixture of isomers),151 nM,6100 nM,–
N[C@@H](CSC(Cc1ccc(Cl)cc1)(c1ccccc1)c1ccccc1)C(=O)O,456 nM,–,–
N[C@@H](CSC(Cc1ccccc1)(c1ccccc1)c1ccccc1)C(=O)O,138 nM,3140 nM,solubility kinetic at 2 h [2]: > 100 µM; GI50 [3]: 5330 nM; GI50 [4]: 14300 nM; GI50 [6]: > 50000 nM; GI50 [7]: 2370 nM; GI50 [8]: 6870 nM; RatioGI50 [9]: >10
N[C@@H](CSC(Cc1ccccc1)(c1ccccc1)c1ccc(Cl)c(Cl)c1)C(=O)O (mixture of isomers),191 nM,–,–
N[C@@H](CSC(Cc1ccccc1)(c1ccc(F)cc1)c1ccc(F)cc1)C(=O)O (mixture of isomers),178 nM,5120 nM,–
Cc1ccc(C(Cc2ccccc2)(SC[C@H](N)C(=O)O)c2ccc(C)cc2)cc1,106 nM,2790 nM,–
N[C@@H](CSC(Cc1ccccc1)(c1ccccc1)c1ccc(Cl)cc1)C(=O)O (mixture of isomers),58.6 nM,2470 nM,GI50 [3]: 4890 nM; GI50 [4]: 3790 nM; GI50 [6]: > 50000 nM; GI50 [7]: 2080 nM; GI50 [8]: 3630 nM; RatioGI50 [9]: >10
N[C@@H](CSC(Cc1ccccc1)(c1ccccc1)c1ccc(O)cc1)C(=O)O (mixture of isomers),159 nM,18200 nM,–
N[C@@H](CSC(Cc1ccccc1)(c1ccc(Cl)cc1)c1ccc(Cl)cc1)C(=O)O,252 nM,–,–
N[C@@H](CSC(Cc1ccc(Cl)c(Cl)c1)(c1ccccc1)c1ccccc1)C(=O)O,5280 nM,–,–
N[C@@H](CSC(c1ccccc1)(c1ccccc1)c1ccncc1)C(=O)O,514 nM,–,–
N[C@@H](CSC(Cc1ccccc1)(c1ccc(Cl)cc1)c1cccc(Cl)c1)C(=O)O (mixture of isomers),568 nM,–,–
Cc1ccc(C(Cc2ccccc2)(SC[C@H](N)C(=O)O)c2ccccc2)cc1 (mixture of isomers),168 nM,1440 nM,solubility kinetic at 2 h [2]: 11.5 µM; GI50 [3]: 2440 nM; GI50 [4]: 4340 nM; GI50 [6]: > 50000 nM; GI50 [7]: 1490 nM; GI50 [8]: 2430 nM; RatioGI50 [9]: >20
N[C@@H](CSC(C(=O)c1ccccc1)(c1ccccc1)c1ccccc1)C(=O)O,> 150000 nM,–,–
N[C@@H](CSC(Cc1ccccc1)(c1ccccc1)c1cccc(O)c1)C(=O)O (mixture of isomers),67.6 nM,17700 nM,–
N[C@@H](CSC(Cc1cccc(Cl)c1)(c1ccccc1)c1ccccc1)C(=O)O,238 nM,–,–
Cc1ccc(C(Cc2ccccc2)(SCCN)c2ccccc2)cc1 (racemic),172 nM,2390 nM,solubility kinetic at 2 h [2]: 6.5 µM; GI50 [3]: 1880 nM; GI50 [4]: 4070 nM; GI50 [6]: 1720 nM; GI50 [7]: 1170 nM; GI50 [8]: 2500 nM; RatioGI50 [9]: 1
NCCSC(Cc1ccccc1)(c1ccccc1)c1cccc(O)c1 (racemic),256 nM,2730 nM,–
N[C@@H](CSC(Cc1ccccc1)(c1ccccc1)c1cccc(Cl)c1)C(=O)O (mixture of isomers),129 nM,4540 nM,–

# Further lines, with some results ahead:
IC50 [1],Structure (SMILES),GI50 [5],further results
437 nM,NCCSC(Cc1ccccc1)(c1ccc(Cl)cc1)c1cccc(Cl)c1 (racemic),–,–
684 nM,NCCSC(Cc1ccccc1)(c1ccccc1)c1ccccc1,–,solubility kinetic at 2 h [2]: > 100 µM
588 nM,NCCSC(Cc1ccccc1)(c1ccc(F)cc1)c1ccc(F)cc1,–,–
404 nM,NCCSC(Cc1ccccc1)(c1ccc(Cl)cc1)c1ccc(Cl)cc1,–,–
666 nM,NCCSC(Cc1ccccc1)(c1ccccc1)c1ccc(O)cc1 (racemic),–,–
> 50000 nM,NCCSC(C(=O)c1ccccc1)(c1ccccc1)c1ccccc1,–,–
942 nM,NCCSC(c1ccccc1)(c1ccccc1)c1ccncc1,–,–
578 nM,NCCSC(Cc1ccccc1)(c1ccccc1)c1ccc(F)cc1 (racemic),–,–
15800 nM,N[C@@H](CSC(CCc1ccccc1)(c1ccccc1)c1ccccc1)C(=O)O,–,–
217 nM,N[C@@H](CSC(Cc1ccccc1)(c1ccccc1)c1ccccc1F)C(=O)O (mixture of isomers),–,–
790 nM,NCCSC(Cc1ccccc1)(c1ccccc1)c1ccccc1F (racemic),–,–
519 nM,NCCSC(Cc1ccccc1)(c1ccccc1)c1cccc(Cl)c1 (racemic),–,–
241 nM,NCCSC(c1ccccc1)(c1ccccc1)c1ccccc1,–,–
261 nM,Cc1ccc(C(Cc2ccccc2)(SCCN)c2ccc(C)cc2)cc1,–,–
229 nM,NCCSC(Cc1ccccc1)(c1ccccc1)c1ccc(Cl)c(Cl)c1 (racemic),–,–
